{
  "source": "patent US20070185055A1",
  "about": "“Method for treating cachexia with retinoid ligands” (priority 2006, published 2007)",
  "key": {"[1]": {"test_system": "AIDS and cancer patients", "details": "cited from earlier work"}, "[2]": {"test_system": "nude mice bearing H292 xenografts (non-small cell lung cancer cells H292)", "test": "Cachexia in nude mice bearing H292 xenografts", "type": "in vivo", "details": "for body weight of the animals: s.c. H292 xenograft", "from_the_text": "FIGS. 1-5 comprise charts or graphs disclosing the results of tests obtained with experimental animals that have been inoculated with a xenograft of non-small cell lung cancer cells H292 or with small cell lung cancer cells H446, and which were then orally administered the RXR agonist Compound 1 referred to above. […]\nSpecifically, in the experiment shown in FIG. 1 nude mice were subcutaneously transplanted with non-small cell lung cancer cells H292. A group of the animals was given a daily oral dose of 10 mg per kilogram body weight of Compound 1 in a suitable pharmaceutically acceptable vehicle. A group of the control animals was given the vehicle only.\nIn the experiment shown in FIG. 4 the right gastrocnemius muscle of the control animals and of the animals treated with Compound 1 in a daily dose of 10 mg/kg, as described in connection with FIG. 1, was weighed after the animals had been sacrificed.\nIn the experiment shown in FIG. 5, the food intake of nude mice with and without H292 xenografts was evaluated. Mice with H292 xenografts had reduced appetite compared with normal control. […] Therefore, adminstration of Compound 1 reverses poor appetite in cachectic animals. […]"}, "[3]": {"test_system": "SCID mice transplanted with small cell lung cancer cells H446", "test": "Cachexia in SCID mice bearing metastatic H446 tumors", "type": "in vivo", "details": "daily oral dose 3 mg/kg or 10 mg/kg, versus vehicle only (FIG. 3)", "protocol": "FIGS. 1-5 comprise charts or graphs disclosing the results of tests obtained with experimental animals that have been inoculated with a xenograft of non-small cell lung cancer cells H292 or with small cell lung cancer cells H446, and which were then orally administered the RXR agonist Compound 1 referred to above.\nIn the experiment shown in FIG. 3, SCID mice were subcutaneously transplanted with small cell lung cancer cells H446. A first group of the animals was given a daily oral dose of 3 mg per kilogram body weight of Compound 1 in a suitable pharmaceutically acceptable vehicle, and a second group was given a daily oral dose of 10 mg per kilogram body weight in the same vehicle. A group of the control animals was given the vehicle only."}, "[4]": {"details": "AIDS as well as cancer patients, literature"}, "[5]": {"details": "patients, J. Clin. Oncol., 20: 567 (2002)"}},
  "data": [
    {"smiles": "CC(=O)O[C@]1(C(C)=O)CC[C@H]2[C@@H]3C=C(C)C4=CC(=O)CC[C@]4(C)[C@H]3CC[C@@]21C", "note": "[Megestrol acetate]", "values": [
      {"measurement": "body weight gain", "setting": "[1]; [4]", "value": "at least five pounds"},
      {"measurement": "primary body component that increased", "setting": "[1]; [4]", "value": "fat, but not lean body mass"}
    ]},
    {"smiles": "CC(/C=C/[C@@H]1C[C@]1(C)c1ccc2c(c1)C(C)(C)CCC2(C)C)=C\\C(=O)O", "note": "[Compound 1]", "values": [
      {"measurement": "weight of the right gastrocnemius muscle", "setting": "[2]; H292 xenograft mice, 62 days after transplantation, daily dose 10 mg/kg, versus control (FIG. 4)", "value": "prevents muscle wasting"},
      {"measurement": "average food intake", "setting": "[2]; nude mice with H292 xenografts, daily dose 10 mg/kg, compared with normal mice (FIG. 5)", "value": "equal amount of food intake as normal mice"},
      {"measurement": "percentage of survival", "setting": "[2]; nude mice, H292 xenograft, daily oral dose 10 mg/kg, versus vehicle (FIG. 2)", "value": "significantly better survival rate"},
      {"measurement": "body weight of the animals", "setting": "[2]; nude mice, daily oral dose 10 mg/kg, versus vehicle only (FIG. 1)", "value": "significantly greater body weights"},
      {"measurement": "body weight of the animals", "setting": "[3]", "value": "significantly greater body weights"}
    ]},
    {"smiles": "CCCCCc1cc(O)c2c(c1)OC(C)(C)[C@@H]1CCC(C)=C[C@@H]21", "note": "[Dronabinol]", "values": [
      {"measurement": "appetite", "setting": "[1]; [5]", "value": "improved appetite"},
      {"measurement": "mood and body weight improvement", "setting": "[1]; [5]", "value": "no effect"}
    ]},
    {"smiles": "CCC[C@]1(c2ccc3c(c2)C(C)(C)CCC3(C)C)C[C@H]1/C=C/C(C)=C/C(=O)O", "note": "[Compound 2]", "values": [
      {"measurement": "average food intake", "setting": "[2]; nude mice bearing H292 xenografts, daily dose 50 mg/kg, versus vehicle (FIG. 7)", "value": "significantly larger food intake"},
      {"measurement": "body weight of the animals", "setting": "[2]; nude mice, daily oral dose 50 mg/kg, versus vehicle only (FIG. 6)", "value": "significantly greater body weights"}
    ]},
    {"smiles": "C[C@]12COC(=O)C[C@@H]1CC[C@@H]1[C@@H]2CC[C@@]2(C)[C@H]1CC[C@]2(C)O", "note": "[Oxandrolone]", "values": [
      {"measurement": "body weight", "setting": "[1]; patients, literature, for Oxandrolone might have represented primary edema", "value": "moderate increase of body weight"}
    ]}
  ]
}
